Assay results as given in US8546440B2, “Substituted bicyclic imidazole derivatives as gamma secretase modulators” (Janssen Pharmaceuticals, Inc., priority 2008, dated 2013).

How the values were obtained:
Aβtotal = test: Screening for γ-secretase-modulating activity, Method 1: Aβtotal sandwich ELISA in supernatant of SKNBE2 cells carrying APP 695 wild type (Tables 12a, 12b); format: cell-based
Procedure: (§1) Screening was carried out using SKNBE2 cells carrying the APP 695—wild type, grown in Dulbecco's Modified Eagle's Medium/Nutrient mixture F-12 (DMEM/NUT-mix F-12) (HAM) provided by Gibco (cat no. 31330-38) containing 5% Serum/Fe supplemented with 1% non-essential amino acids. Cells were grown to near confluency.
(§2) The screening was performed using the assay as described in Citron et al (1997) Nature Medicine 3: 67. Briefly, cells were plated in a 96-well plate at about 10^5 cells/ml one day prior to addition of compounds. Compounds were added to the cells in Ultraculture (Lonza, BE12-725F) supplemented with 1% glutamine (Invitrogen, 25030-024) for 18 hours. The media were assayed by two sandwich ELISAs, for Aβ42 and Aβtotal. Toxicity of the compounds was assayed by WST-1 cell proliferation reagent (Roche, 1 644 807) according to the manufacturer's protocol.
To quantify the amount of Aβtotal in the cell supernatant, samples and standards were added to a 6E10-coated plate. The plate was allowed to incubate overnight at 4° C. in order to allow formation of the antibody-amyloid complex. Following this incubation and subsequent wash steps a selective anti-Aβ-antibody conjugate (biotinylated 4G8) was added and incubated for a minimum of 1 hour in order to allow formation of the antibody-Amyloid-antibody-complex. After incubation and appropriate wash steps, a Streptavidine-Peroxidase-Conjugate was added, followed 30 minutes later by an addition of Quanta Blu fluorogenic peroxidase substrate according to the manufacturer's instructions (Pierce Corp., Rockford, Ill.).
(§3) To obtain the values reported in Table 12a, the sigmoidal dose response curves were analysed by computerised curve-fitting, with percent of inhibition plotted against compound concentration. A 4-parameter equation (model 205) in XLfit was used to determine the IC50. The top and the bottom of the curve were fixed to 100 and 0, respectively, and the hill slope was fixed to 1. The IC50 represents the concentration of a compound that is required for inhibiting a biological effect by 50% (Here, it is the concentration where Aβ peptide level is reduced by 50%).
(§4) To obtain the values reported in Table 12b, the data are calculated as percentage of the maximum amount of amyloid Beta 42 measured in the absence of the test compound. The sigmoidal dose response curves were analyzed using non-linear regression analysis with percentage of the control plotted against the log concentration of the compound. A 4-parameter equation was used to determine the IC50. The values reported in Table 12b are averaged IC50 values.

Aβ42 = test: Screening for γ-secretase-modulating activity, Method 1: Aβ42 sandwich ELISA in supernatant of SKNBE2 cells carrying APP 695 wild type (Tables 12a, 12b); format: cell-based
Procedure: as §1, §2
To quantify the amount of Aβ42 in the cell supernatant, commercially available Enzyme-Linked-Immunosorbent-Assay (ELISA) kits were used (Innotest® β-Amyloid(1-42), Innogenetics N.V., Ghent, Belgium). The Aβ42 ELISA was performed essentially according to the manufacturer's protocol. Briefly, the standards (dilutions of synthetic Aβ1-42) were prepared in polypropylene Eppendorf with final concentrations of 8000 down to 3.9 pg/ml (1/2 dilution step). Samples, standards and blanks (100 μl) were added to the anti-Aβ42-coated plate supplied with the kit (the capture antibody selectively recognizes the C-terminal end of the antigen). The plate was allowed to incubate 3 h at 25° C. in order to allow formation of the antibody-amyloid complex. Following this incubation and subsequent wash steps a selective anti-Aβ-antibody conjugate (biotinylated 3D6) was added and incubated for a minimum of 1 hour in order to allow formation of the antibody-Amyloid-antibody-complex. After incubation and appropriate wash steps, a Streptavidine-Peroxidase-Conjugate was added, followed 30 minutes later by an addition of 3,3′,5,5′-tetramethylbenzidine (TMB)/peroxide mixture, resulting in the conversion of the substrate into a coloured product. This reaction was stopped by the addition of sulfuric acid (0.9 N) and the colour intensity was measured by means of photometry with an ELISA-reader with a 450 nm filter.
as §3, §4

[1] = Homo sapiens, Method 1, Table 12a, SKNBE2 cells carrying APP 695 wild type, compounds 18 hours, ELISA, curve top and bottom fixed to 100 and 0, hill slope 1
[2] = Homo sapiens, Table 12b, Method 1, SKNBE2 cells carrying APP 695 wild type, cell supernatant ELISA, averaged IC50 values
[3] = Homo sapiens, Table 12b, Method 1, SKNBE2 cells carrying APP 695 wild type, cell supernatant ELISA, averaged IC50 values, percentage of control vs log concentration
[4] = Method 1, Table 12a, SKNBE2 cells carrying APP 695 wild type, compounds 18 hours, ELISA, curve top and bottom fixed to 100 and 0, hill slope 1
[5] = Table 12b, Method 1, SKNBE2 cells carrying APP 695 wild type, cell supernatant ELISA, averaged IC50 values
[6] = Table 12b, Method 1, SKNBE2 cells carrying APP 695 wild type, cell supernatant ELISA, averaged IC50 values, percentage of control vs log concentration

| IC50 (Aβtotal; [2]) [µM] | IC50 (Aβ42; [3]) [µM] | Structure (SMILES) | other results |
| --- | --- | --- | --- |
| > 10 | 0.437 | COc1cc(Nc2cccn3c(-c4cccc(-c5ccccc5)c4)cnc23)ccc1-n1cnc(C)c1 [Compound 61] | IC50 (Aβtotal; [1]): > 10 µM; IC50 (Aβ42; [1]): 0.423 µM |
| > 3.02 | 0.417 | COc1cc(Nc2cccn3c(C(=O)c4ccc(F)cc4)cnc23)ccc1-n1cnc(C)c1 [Compound 62] | IC50 (Aβtotal; [1]): > 10 µM; IC50 (Aβ42; [1]): 0.477 µM |
| > 3.02 | 0.017 | COc1cccc(-c2nc3c(Nc4ccc(-n5cnc(C)c5)cc4)cccn3c2C)c1 [Compound 64] | IC50 (Aβtotal; [1]): > 3 µM; IC50 (Aβ42; [1]): 0.013 µM |
| > 3.02 | 0.04 | COc1cccc(-c2nc3c(Nc4ccc(-n5cnc(C)n5)c(OC)c4)cccn3c2C)c1 [Compound 67] | IC50 (Aβtotal; [1]): > 3 µM; IC50 (Aβ42; [1]): 0.051 µM |
| > 10 | 0.174 | COc1cc(Nc2cccn3cc(-c4ccccc4F)nc23)ccc1-n1cnc(C)c1 [Compound 88] | IC50 (Aβtotal; [1]): > 3 µM; IC50 (Aβ42; [1]): 0.184 µM |
| > 1 | 0.013 | COc1cc(Nc2cccn3c(CO)c(-c4ccc(F)cc4)nc23)ccc1-n1cnc(C)c1 [Compound 101] |  |
| > 3.02 | 0.295 | COc1cc(Nc2cccn3cc(C4CC4)nc23)ccc1-n1cnc(C)c1 [Compound 116] |  |

Continued, molecule first:

| Structure (SMILES) | IC50 (Aβtotal; [2]) [µM] | IC50 (Aβ42; [3]) [µM] | other results |
| --- | --- | --- | --- |
| COc1cccc(-c2nc3c(Nc4ccc(-n5ccnc5C)cc4)cccn3c2C)c1 [Compound 65] | 17.8 | 0.661 | IC50 (Aβtotal; [1]): 27.2 µM; IC50 (Aβ42; [1]): 0.782 µM |
| COc1cccc(-c2nc3c(Nc4ccc(-n5cnc(C)c5)cn4)cccn3c2C)c1 [Compound 68] |  |  | IC50 (Aβtotal; [4]): > 1 µM; IC50 (Aβtotal; [5]): > 3.02 µM; IC50 (Aβ42; [4]): 0.018 µM; IC50 (Aβ42; [6]): 0.018 µM |
| Cc1ccc(C(F)(F)F)cc1-c1cn2cccc(Nc3ccc(-n4ncnc4C)cc3)c2n1 [Compound 75] | > 3.02 | 0.126 |  |
| CCCCc1cn2cccc(Nc3ccc(-n4cnc(C)n4)cc3)c2n1 [Compound 76] |  |  | IC50 (Aβtotal; [5]): > 10 µM; IC50 (Aβ42; [6]): 1.95 µM |
| COc1cc(Nc2cccn3cc(C)nc23)ccc1-n1cnc(C)n1 [Compound 77] | > 10 | 4.37 | IC50 (Aβtotal; [1]): > 10 µM; IC50 (Aβ42; [1]): 2.69 µM |
| Cc1ncn(-c2ccc(Nc3cccn4cc(-c5cc(C(F)(F)F)ccc5C)nc34)nc2)n1 [Compound 81] |  |  | IC50 (Aβtotal; [5]): > 10 µM; IC50 (Aβ42; [6]): 0.38 µM |
| Cc1ncn(-c2ccc(Nc3cccn4cc(-c5ccccc5C)nc34)nc2)n1 [Compound 82] |  |  | IC50 (Aβtotal; [5]): > 3.02 µM; IC50 (Aβ42; [6]): 0.562 µM |
| Cc1ncn(-c2ccc(Nc3cccn4cc(-c5cc(C(F)(F)F)ccc5C)nc34)cn2)n1 [Compound 84] |  |  | IC50 (Aβtotal; [5]): > 3.02 µM; IC50 (Aβ42; [6]): 0.115 µM |
| COc1cc(Nc2cccn3cc(-c4ccc(F)cc4C)nc23)ccc1-n1cnc(C)n1 [Compound 89] | > 3.02 | 0.085 |  |
| Cc1ncn(-c2ccc(Nc3cccn4cc(-c5ccc(F)cc5C)nc34)cc2)n1 [Compound 90] | > 3.02 | 0.398 |  |
| Cc1ncn(-c2ccc(Nc3cccn4cc(-c5ccc(F)cc5C)nc34)cc2F)n1 [Compound 91] | 18.6 | 0.072 |  |
| COc1cc(Nc2cccn3c(CNC=O)c(-c4cccc(F)c4)nc23)ccc1-n1cnc(C)c1 [Compound 100] |  |  | IC50 (Aβtotal; [5]): > 3.02 µM; IC50 (Aβ42; [6]): 0.011 µM |
| Cc1cc(F)ccc1-c1cn2cccc(Nc3ccc(-n4ncnc4C)c(F)c3)c2n1 [Compound 131] | > 10 | 0.245 |  |
| Cc1ncn(-c2ccc(Nc3cccn4c(C)c(-c5ccccc5Cl)nc34)c(F)c2)n1 [Compound 133] | > 3.02 | 0.468 |  |
| COc1cc(Nc2cc(C(F)(F)F)cn3cc(Cc4ccc(F)cc4)nc23)ccc1-n1cnc(C)n1 [Compound 146] |  |  | IC50 (Aβtotal; [5]): > 3.02 µM; IC50 (Aβ42; [6]): 0.032 µM |
| COc1cc(Nc2cc(C(F)(F)F)cn3cc(COc4ccc(F)cc4)nc23)ccc1-n1cnc(C)n1 [Compound 147] | > 3.02 | 0.042 |  |
| COc1cc(Nc2cc(C(F)(F)F)cn3cc(CO)nc23)ccc1-n1cnc(C)n1 [Compound 152] | > 3.02 | 1.78 |  |
